Results reported in PMC7749613 (Journal of Cachexia, Sarcopenia and Muscle, 2020).
Bridge positions count the residues as written; N and C are the ends. Square brackets hold non-standard residues; d marks the D form. Peptide text beside a SMILES is read from it. d2Nal = N[C@H](Cc1ccc2ccccc2c1)C(=O)O; Nle = CCCC[C@H](N)C(=O)O

Columns and labels:
Assay type in all cases: in vitro ADME
OAT3 = target: T1, OAT3 (Homo sapiens, UniProt Q8TCC7); assay: Inhibition of prototypical substrate (E3S) uptake by TCMCB07 in HEK293/OAT3 cells; details: substrate 1.0 μM [3H]E3S, 5.0 min, up to 1000 μM TCMCB07
T1 construct: host or cells: HEK293
T1 sequence (Q8TCC7 1-542): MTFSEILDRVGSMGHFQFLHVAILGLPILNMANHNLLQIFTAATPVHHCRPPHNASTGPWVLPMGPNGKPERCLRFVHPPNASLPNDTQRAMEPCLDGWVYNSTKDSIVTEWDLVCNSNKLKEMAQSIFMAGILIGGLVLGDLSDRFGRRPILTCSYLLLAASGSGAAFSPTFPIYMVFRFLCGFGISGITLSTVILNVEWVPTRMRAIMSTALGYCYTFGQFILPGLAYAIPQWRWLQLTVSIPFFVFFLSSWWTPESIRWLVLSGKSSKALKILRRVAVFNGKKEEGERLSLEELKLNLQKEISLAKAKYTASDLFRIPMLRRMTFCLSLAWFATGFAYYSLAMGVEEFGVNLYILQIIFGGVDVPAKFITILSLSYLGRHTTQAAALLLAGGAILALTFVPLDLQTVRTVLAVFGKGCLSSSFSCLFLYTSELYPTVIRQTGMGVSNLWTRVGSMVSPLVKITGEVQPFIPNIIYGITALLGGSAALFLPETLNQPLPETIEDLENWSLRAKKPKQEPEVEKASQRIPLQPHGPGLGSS
Experimental: (§2) Cells were then washed three times × 1.0 mL each with pre‐warmed Hank's Balanced Salt Solution (HBSS) buffer. A 0.5 mL aliquot of uptake buffer [HBSS plus 10 mM 4‐(2‐hydroxyethyl)‐1‐piperazineethanesulfonic acid (HEPES), pH 7.4], containing the radiolabelled prototypical substrate and mannitol, was then incubated for various times up to 60 min to determine the optimal incubation time for subsequent experiments (i.e. time of sampling during linear uptake conditions). At the designated times, 1.0 mL of ice‐cold HBSS buffer was added to stop uptake after which the cells were rinsed three times with 1.0 mL with ice‐cold HBSS. Hyamine hydroxide (0.33 mL) was then added to each well to lyse the cells. The cells were transferred into a scintillation vial and mixed with 6.0 mL of cytosine scintillation cocktail. Radioactivity of the solubilized cells was determined with a dual‐channel liquid scintillation counter (Beckman LS 6000; Beckman Coulter Inc., Fullerton, CA) and the protein quantified by a bicinchoninic acid protein assay kit (Pierce Biotechnology; Rockford, IL).

MATE1 = target: T2, MATE1 (Homo sapiens, UniProt Q96FL8)
T2 sequence (Q96FL8 1-570): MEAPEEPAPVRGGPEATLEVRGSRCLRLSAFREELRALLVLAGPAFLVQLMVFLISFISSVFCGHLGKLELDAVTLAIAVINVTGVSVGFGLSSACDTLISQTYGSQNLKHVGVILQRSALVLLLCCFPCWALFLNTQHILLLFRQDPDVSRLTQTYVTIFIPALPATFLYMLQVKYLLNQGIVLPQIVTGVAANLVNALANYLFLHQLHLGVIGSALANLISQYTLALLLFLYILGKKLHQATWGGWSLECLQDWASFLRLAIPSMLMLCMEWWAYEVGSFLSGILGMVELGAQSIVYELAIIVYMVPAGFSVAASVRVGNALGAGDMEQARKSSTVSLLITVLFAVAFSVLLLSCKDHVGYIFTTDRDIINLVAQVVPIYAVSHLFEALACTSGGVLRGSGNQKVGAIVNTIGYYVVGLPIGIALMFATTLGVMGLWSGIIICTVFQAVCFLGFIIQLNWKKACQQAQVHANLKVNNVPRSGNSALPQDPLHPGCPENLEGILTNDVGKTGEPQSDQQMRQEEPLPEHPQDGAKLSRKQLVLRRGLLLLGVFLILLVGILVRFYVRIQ
Experimental: (§1) However, for these studies, a different incubation buffer was used (145 mM NaCl, 3 mM KCl, 1 mM CaCl2, 0.5 mM MgCl2, 5 mM glucose, and 5 mM HEPES, pH 7.4). ^13 Moreover, intracellular acidification was achieved by preincubating the cells in buffer containing 30 mM ammonium chloride for 20 min at 37°C. […] Radioactivity and protein measurements were performed as described previously.

MATE2‐K = MATE2‐K (Homo sapiens, UniProt Q86VL8)
Chain of MATE2‐K (Q86VL8 1-566 isoform Q86VL8-3): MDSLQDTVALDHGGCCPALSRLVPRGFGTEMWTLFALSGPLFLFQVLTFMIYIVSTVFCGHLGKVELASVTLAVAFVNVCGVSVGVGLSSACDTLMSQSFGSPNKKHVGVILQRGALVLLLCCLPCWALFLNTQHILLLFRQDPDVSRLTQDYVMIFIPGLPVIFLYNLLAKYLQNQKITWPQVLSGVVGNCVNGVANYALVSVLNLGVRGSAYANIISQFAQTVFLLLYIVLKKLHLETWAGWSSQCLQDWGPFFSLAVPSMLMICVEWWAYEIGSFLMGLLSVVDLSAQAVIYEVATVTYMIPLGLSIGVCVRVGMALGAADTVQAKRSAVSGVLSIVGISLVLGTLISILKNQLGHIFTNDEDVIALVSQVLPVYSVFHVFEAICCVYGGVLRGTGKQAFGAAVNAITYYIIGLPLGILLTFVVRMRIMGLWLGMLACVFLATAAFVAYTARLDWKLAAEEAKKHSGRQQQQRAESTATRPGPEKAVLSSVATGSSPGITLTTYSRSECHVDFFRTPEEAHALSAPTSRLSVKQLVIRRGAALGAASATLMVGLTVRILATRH
Experimental: as §1

OATP1A2 = target: T3, OATP1A2 (Homo sapiens, UniProt P46721); assay: Inhibition of prototypical substrate (E3S) uptake by TCMCB07 in HEK293/OATP1A2 cells; set-up: host or cells: HEK293
T3 sequence (P46721 1-670): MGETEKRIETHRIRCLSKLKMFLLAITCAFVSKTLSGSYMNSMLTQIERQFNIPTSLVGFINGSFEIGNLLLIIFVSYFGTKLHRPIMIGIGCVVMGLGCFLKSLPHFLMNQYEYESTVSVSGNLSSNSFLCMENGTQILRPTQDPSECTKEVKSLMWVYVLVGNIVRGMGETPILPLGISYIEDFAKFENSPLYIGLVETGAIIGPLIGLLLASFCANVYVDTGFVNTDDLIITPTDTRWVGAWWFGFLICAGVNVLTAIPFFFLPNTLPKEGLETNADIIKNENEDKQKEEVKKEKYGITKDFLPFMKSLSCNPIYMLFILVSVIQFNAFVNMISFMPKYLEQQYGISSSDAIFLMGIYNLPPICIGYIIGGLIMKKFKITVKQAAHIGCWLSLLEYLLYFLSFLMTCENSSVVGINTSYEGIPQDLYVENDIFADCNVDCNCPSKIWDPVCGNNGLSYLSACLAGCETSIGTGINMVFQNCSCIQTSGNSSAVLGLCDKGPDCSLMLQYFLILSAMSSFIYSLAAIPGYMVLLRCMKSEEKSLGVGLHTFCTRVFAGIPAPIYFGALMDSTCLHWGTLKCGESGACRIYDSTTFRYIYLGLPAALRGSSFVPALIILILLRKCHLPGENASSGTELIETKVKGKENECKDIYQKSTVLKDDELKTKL
Experimental: as §2
Mock and transfected cells (250 000 cells/well) were seeded onto BioCoat poly‐D‐lysine 24 well plates (Corning Inc.) and cultured for 2 days as described previously for the other OATPs. […] Radioactivity and protein measurements were then performed as described previously.

OAT1 = target: T4, OAT1 (Homo sapiens, UniProt Q4U2R8); assay: Inhibition of prototypical substrate (PAH) uptake by TCMCB07 in HEK293/OAT1 cells; details: substrate 1.0 μM [14C]PAH, 5.0 min, up to 1000 μM TCMCB07
T4 construct: host or cells: HEK293
T4 sequence (Q4U2R8 1-563): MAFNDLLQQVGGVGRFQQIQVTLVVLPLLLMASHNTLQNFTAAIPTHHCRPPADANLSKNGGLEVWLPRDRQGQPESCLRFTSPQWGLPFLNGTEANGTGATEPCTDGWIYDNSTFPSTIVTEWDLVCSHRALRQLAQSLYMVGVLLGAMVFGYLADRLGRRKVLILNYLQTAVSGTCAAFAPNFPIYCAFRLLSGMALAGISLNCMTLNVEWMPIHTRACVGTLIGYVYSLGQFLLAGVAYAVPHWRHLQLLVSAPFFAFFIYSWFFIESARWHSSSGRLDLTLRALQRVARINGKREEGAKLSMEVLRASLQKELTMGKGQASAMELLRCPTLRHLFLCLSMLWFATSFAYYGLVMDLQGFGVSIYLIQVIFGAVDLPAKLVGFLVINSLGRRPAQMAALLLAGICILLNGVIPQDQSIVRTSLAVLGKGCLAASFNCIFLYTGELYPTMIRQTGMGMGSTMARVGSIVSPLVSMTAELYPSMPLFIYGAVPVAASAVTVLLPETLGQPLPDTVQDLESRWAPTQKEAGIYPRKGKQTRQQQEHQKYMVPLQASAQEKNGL
Experimental: as §2

- IC50 (OAT3): could not be determined
- IC50 (MATE1): 8.7 ± 0.4 µM
- IC50 (MATE2‐K): 20.7 ± 2.1 µM
- IC50 (OATP1A2): 24 ± 2.8 µM
- IC50 (OAT1): could not be determined
SMILES: CCCC[C@H](NC(C)=O)C(=O)N[C@H]1CC(=O)NCCCC[C@@H](C(=O)N[C@@H](C(=O)N2CCC[C@@H]2C(N)=O)C(C)C)NC(=O)[C@H](Cc2c[nH]c3ccccc23)NC(=O)[C@H](CCCN=C(N)N)NC(=O)[C@@H](Cc2ccc3ccccc3c2)NC(=O)[C@@H]2CCCN2C1=O [TCMCB07, Ac‐Nle‐c[Asp‐Pro‐dNal2′‐Arg‐Trp‐Lys]‐dVal‐dPro‐NH2] (Ac-[Nle]DP[d2Nal]RWK[dV][dP]-NH2; lactam 2-7)
